Data reported in patent US4268664A, “Process for the preparation of 1-N-isoseryl- or 1-N-(L-4-amino-2-hydroxybutyryl)-3',4'-dideoxykanamycin B and intermediates thereof” (Zaidan Hojin Biseibutsu Kagaku Kenkyu Kai, priority 1978, dated 1981).
In brackets after ≈: the same amount, converted by molar mass.

Key:
[1] = tested on: kanamycin-resistant microbial strains including Pseudomonas aeruginosa; details: cited from earlier work
various microorganisms = assay: antimicrobial activity (in words); format: cell-based
Procedure: (§1) The minimum inhibitory concentrations (mcg/ml) of the compounds tested against various microorganisms were determined according to a serial dilution method using nutrient agar medium at 37° C., the estimation being effected after 20 hours-incubation.

Serra. marcescens I-0043 = assay: Antibacterial activity (MIC), serial dilution method; format: cell-based; details: Serratia marcescens, I0043, 20 h
Ps. aeruginosa NC-5 = assay: as above; format: cell-based; details: Pseudomonas aeruginosa, NC5; nutrient agar, 37° C., 20 hours; read-out: MIC
Ps. aeruginosa IAM-1007 = assay: as above; format: cell-based; details: Pseudomonas aeruginosa, IAM1007; nutrient agar, 37° C., 20 hours; read-out: MIC
Pro. morganii K-ono = assay: as above; format: cell-based; details: Morganella morganii; nutrient agar, 37° C., 20 hours
Pro. vulgaris J-0001 = assay: as above; format: cell-based; details: Proteus vulgaris, J0001; nutrient agar, 37° C., 20 hours; read-out: MIC
[2] = tested on: Ps. aeruginosa IID 1210 (IFO 3455); assay: as above; format: cell-based; details: Pseudomonas aeruginosa; nutrient agar, 37° C., 20 hours; read-out: MIC
Sta. aureus Smith S-424 = assay: as above; format: cell-based; details: Staphylococcus aureus, SMITHS424; nutrient agar, 37° C., 20 hours
Kleb. pneumoniae = assay: as above; format: cell-based; details: Klebsiella pneumoniae, 20 h
Ps. aeruginosa M-0148 = assay: as above; format: cell-based; details: Pseudomonas aeruginosa, M0148, 20 h
[3] = tested on: Shigella dysenteriae Shigae; assay: microbe, parasite or virus in culture; format: cell-based; details: 20 h
[4] = tested on: Kleb. pneumoniae 22# 3038 (A-20680); assay: Antibacterial activity (MIC), serial dilution method; format: cell-based; details: Klebsiella pneumoniae, 20 h
Serra. marcescens No. 2 = assay: as above; format: cell-based; details: Serratia marcescens, nutrient agar, 37° C., 20 hours
Sta. epidermidis 109 = assay: as above; format: cell-based; details: Staphylococcus epidermidis, nutrient agar, 37° C., 20 hours
Sta. aureus No. 26 = assay: as above; format: cell-based; details: Staphylococcus aureus, nutrient agar, 37° C., 20 hours
Pro. vulgaris OX19 = assay: as above; format: cell-based; details: Proteus vulgaris, nutrient agar, 37° C., 20 hours
E. coli No. 29 = assay: as above; format: cell-based; details: Escherichia coli, nutrient agar, 37° C., 20 hours
[5] = tested on: E. coli (M) Cast. & Chalm.NIHJ JC-2; assay: as above; format: cell-based; details: Escherichia coli, NIHJJC2; nutrient agar, 37° C., 20 hours; read-out: MIC
Sal. typhimurium LT-2 = assay: as above; format: cell-based; details: Salmonella enterica, nutrient agar, 37° C., 20 hours, read-out: MIC
Serra. marcescens No. 1 = assay: as above; format: cell-based; details: Serratia marcescens, nutrient agar, 37° C., 20 hours
Sal. typhi 0-901-W = assay: as above; format: cell-based; details: Salmonella enterica, 20 h
E. coli A-0003 = assay: as above; format: cell-based; details: Escherichia coli, A0003; nutrient agar, 37° C., 20 hours
B. anthracis No. 119 = assay: microbe, parasite or virus in culture; format: cell-based; details: Bacillus anthracis, NO.119, 20 h
[6] = tested on: Sta. aureus Rosenbach FDA 209-P JC-1; assay: Antibacterial activity (MIC), serial dilution method; format: cell-based; details: Staphylococcus aureus, FDA209; nutrient agar, 37° C., 20 hours
Ps. aeruginosa E-2 = assay: as above; format: cell-based; details: Pseudomonas aeruginosa, E2; nutrient agar, 37° C., 20 hours; read-out: MIC
Pro. mirabilis J-0010 = assay: as above; format: cell-based; details: Proteus mirabilis, J0010; nutrient agar, 37° C., 20 hours; read-out: MIC
E. coli W 677(A-20684) = assay: as above; format: cell-based; details: Escherichia coli; nutrient agar, 37° C., 20 hours
Procedure: (§2) Antimicrobial spectra of 1-N-(L-isoseryl)- and 1-N-(L-4-amino-2-hydroxybutyryl)-3',4'-dideoxy-3',4'-didehydrokanamycin B (1-AHP-eno-DKB and 1-AHB-eno-DKB) are shown in the following table together with that of 1-N-(L-4-amino-2-hydroxybutyryl)-3',4'-dideoxykanamycin B (1-AHB-DKB).
as §1

Sal. species D-0001 = assay: as above; format: cell-based; details: nutrient agar, 37° C., 20 hours
Procedure: as §2, §1

Sal. species D-0029 = assay: as above; format: cell-based; details: nutrient agar, 37° C., 20 hours
Procedure: as §2, §1

Sal. species D-0006 = assay: as above; format: cell-based; details: nutrient agar, 37° C., 20 hours
Procedure: as §2, §1

Ps. aeruginosa M-0002 = assay: as above; format: cell-based; details: Pseudomonas aeruginosa, M0002, 20 h
[7] = tested on: Sta. epidermidis ATCC 14990; assay: as above; format: cell-based; details: Staphylococcus epidermidis, ATCC14990; nutrient agar, 37° C., 20 hours
Sta. aureus ApO-1 = assay: as above; format: cell-based; details: Staphylococcus aureus, APO1; nutrient agar, 37° C., 20 hours
Pro. rettgelli J-0026 = assay: as above; format: cell-based; details: nutrient agar, 37° C., 20 hours; read-out: MIC
Ps. aeruginosa M-0032 = assay: as above; format: cell-based; details: Pseudomonas aeruginosa, M0032; nutrient agar, 37° C., 20 hours; read-out: MIC
E. coli A-0001 = assay: as above; format: cell-based; details: Escherichia coli, A0001; nutrient agar, 37° C., 20 hours
Str. faecalis ATCC 8043 = assay: as above; format: cell-based; details: Enterococcus faecalis, ATCC8043; nutrient agar, 37° C., 20 hours
Sta. aureus N-0089 = assay: as above; format: cell-based; details: Staphylococcus aureus, N0089; nutrient agar, 37° C., 20 hours
[8] = tested on: Sal. enteritidis No. 11(T-okai); assay: as above; format: cell-based; details: Salmonella enterica, nutrient agar, 37° C., 20 hours, read-out: MIC
B. subtilis ATCC 6633 = assay: as above; format: cell-based; details: Bacillus subtilis, ATCC6633; nutrient agar, 37° C., 20 hours
[9] = tested on: E. coli JR 66/W 677(A-20683); assay: as above; format: cell-based; details: Escherichia coli; nutrient agar, 37° C., 20 hours; read-out: MIC

## NCC1CCC(N)C(OC2C(N)CC(N)C(OC3OC(CO)C(O)C(N)C3O)C2O)O1 (stereo not drawn) [3',4'-Dideoxykanamycin B]
[1]
  activity against kanamycin-resistant microbial strains: high activity

## NCC1C=CC(N)C(OC2C(N)CC(NC(=O)C(O)CN)C(OC3OC(CO)C(O)C(N)C3O)C2O)O1 (stereo not drawn) [1-N-isoseryl-3',4'-dideoxy-3',4'-didehydrokanamycin B]
Various microorganisms
  antimicrobial activity: high antimicrobial activity

## NCC1C=CC(N)C(OC2C(N)CC(NC(=O)C(O)CN)C(OC3OC(CO)C(O)C(N)C3O)C2O)O1 [1-AHP-eno-DKB, 1-N-(L-isoseryl)-3',4'-dideoxy-3',4'-didehydrokanamycin B]
Serra. marcescens I-0043
  MIC: 1.56 µg/mL (≈ 2.91 µM)
Ps. aeruginosa NC-5
  MIC: 3.13 µg/mL (≈ 5.83 µM)
Ps. aeruginosa IAM-1007
  MIC: 0.78 µg/mL (≈ 1.45 µM)
Pro. morganii K-ono
  MIC: 3.13 µg/mL (≈ 5.83 µM)
Pro. vulgaris J-0001
  MIC: 3.13 µg/mL (≈ 5.83 µM)
[2]
  MIC: 3.13 µg/mL (≈ 5.83 µM)
Sta. aureus Smith S-424
  MIC: 0.39 µg/mL (≈ 0.727 µM)
Kleb. pneumoniae
  MIC: 1.56 µg/mL (≈ 2.91 µM)
Ps. aeruginosa M-0148
  MIC: 1.56 µg/mL (≈ 2.91 µM)
[3]
  MIC: 1.56 µg/mL (≈ 2.91 µM)
[4]
  MIC: 1.56 µg/mL (≈ 2.91 µM)
Serra. marcescens No. 2
  MIC: 3.13 µg/mL (≈ 5.83 µM)
Sta. epidermidis 109
  MIC: 0.2 µg/mL (≈ 0.373 µM)
Sta. aureus No. 26
  MIC: 0.39 µg/mL (≈ 0.727 µM)
Pro. vulgaris OX19
  MIC: 3.13 µg/mL (≈ 5.83 µM)
E. coli No. 29
  MIC: 6.25 µg/mL (≈ 11.6 µM)
[5]
  MIC: 3.13 µg/mL (≈ 5.83 µM)
Sal. typhimurium LT-2
  MIC: 3.13 µg/mL (≈ 5.83 µM)
Serra. marcescens No. 1
  MIC: 3.13 µg/mL (≈ 5.83 µM)
Sal. typhi 0-901-W
  MIC: 1.56 µg/mL (≈ 2.91 µM)
E. coli A-0003
  MIC: 6.25 µg/mL (≈ 11.6 µM)
B. anthracis No. 119
  MIC: 0.2 µg/mL (≈ 0.373 µM)
[6]
  MIC: 0.1 µg/mL (≈ 0.186 µM)
Ps. aeruginosa E-2
  MIC: 3.13 µg/mL (≈ 5.83 µM)
Pro. mirabilis J-0010
  MIC: 3.13 µg/mL (≈ 5.83 µM)
E. coli W 677(A-20684)
  MIC: 0.78 µg/mL (≈ 1.45 µM)
Sal. species D-0001
  MIC: 6.25 µg/mL (≈ 11.6 µM)
Sal. species D-0029
  MIC: 6.25 µg/mL (≈ 11.6 µM)
Sal. species D-0006
  MIC: 6.25 µg/mL (≈ 11.6 µM)
Ps. aeruginosa M-0002
  MIC: 1.56 µg/mL (≈ 2.91 µM)
[7]
  MIC: 0.2 µg/mL (≈ 0.373 µM)
Sta. aureus ApO-1
  MIC: 0.78 µg/mL (≈ 1.45 µM)
Pro. rettgelli J-0026
  MIC: 25 µg/mL (≈ 46.6 µM)
Ps. aeruginosa M-0032
  MIC: 6.25 µg/mL (≈ 11.6 µM)
E. coli A-0001
  MIC: 6.25 µg/mL (≈ 11.6 µM)
Str. faecalis ATCC 8043
  MIC: 50 µg/mL (≈ 93.2 µM)
Sta. aureus N-0089
  MIC: 0.39 µg/mL (≈ 0.727 µM)
[8]
  MIC: 3.13 µg/mL (≈ 5.83 µM)
B. subtilis ATCC 6633
  MIC: 0.2 µg/mL (≈ 0.373 µM)
[9]
  MIC: 3.13 µg/mL (≈ 5.83 µM)
